Measured values taken from ChEMBL document CHEMBL1140004, “2-Arylimino-5,6-dihydro-4H-1,3-thiazines as a new class of cannabinoid receptor agonists. Part 1: discovery of CB2 receptor selective compounds” (Bioorg Med Chem Lett, 2007).
The source made the active and inactive calls. The calls are words filed in the database; no cut-off is given here.

Experiments:
Cannabinoid receptor 2 [1] = target: T1, Cannabinoid receptor 2 (Homo sapiens, UniProt P34972); assay: Displacement of [3H]CP-55940 from human CB2 receptor
T1 sequence (P34972 whole entry): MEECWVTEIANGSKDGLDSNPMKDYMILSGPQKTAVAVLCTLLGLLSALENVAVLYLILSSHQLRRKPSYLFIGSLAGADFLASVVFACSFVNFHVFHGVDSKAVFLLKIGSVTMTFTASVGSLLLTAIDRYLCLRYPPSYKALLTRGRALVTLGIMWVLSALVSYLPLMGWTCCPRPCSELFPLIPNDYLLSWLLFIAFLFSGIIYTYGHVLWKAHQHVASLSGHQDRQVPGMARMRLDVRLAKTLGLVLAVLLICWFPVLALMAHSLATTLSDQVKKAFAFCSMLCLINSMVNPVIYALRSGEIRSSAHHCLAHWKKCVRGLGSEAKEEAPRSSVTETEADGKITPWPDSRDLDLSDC

Cannabinoid receptor 2 [2] = target: Cannabinoid receptor 2 (Mus musculus, UniProt P47936); assay: Displacement of [3H]CP-55940 from mouse CB2 receptor
Sequence of Cannabinoid receptor 2 (Mus musculus, UniProt P47936) (P47936 whole entry): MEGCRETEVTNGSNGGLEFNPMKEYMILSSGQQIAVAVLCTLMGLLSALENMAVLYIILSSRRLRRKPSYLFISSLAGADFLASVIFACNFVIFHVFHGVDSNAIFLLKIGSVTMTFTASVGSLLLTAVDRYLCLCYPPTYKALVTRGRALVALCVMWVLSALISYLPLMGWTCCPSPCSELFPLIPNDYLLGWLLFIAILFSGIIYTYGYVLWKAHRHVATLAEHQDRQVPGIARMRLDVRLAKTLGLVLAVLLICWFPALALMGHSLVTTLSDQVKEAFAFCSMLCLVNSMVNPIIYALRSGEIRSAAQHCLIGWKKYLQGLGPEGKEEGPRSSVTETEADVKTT

Cannabinoid receptor 1 [3] = target: T2, Cannabinoid receptor 1 (Homo sapiens, UniProt P21554); assay: Displacement of [3H]CP-55940 from human CB1 receptor
T2 sequence (P21554 whole entry): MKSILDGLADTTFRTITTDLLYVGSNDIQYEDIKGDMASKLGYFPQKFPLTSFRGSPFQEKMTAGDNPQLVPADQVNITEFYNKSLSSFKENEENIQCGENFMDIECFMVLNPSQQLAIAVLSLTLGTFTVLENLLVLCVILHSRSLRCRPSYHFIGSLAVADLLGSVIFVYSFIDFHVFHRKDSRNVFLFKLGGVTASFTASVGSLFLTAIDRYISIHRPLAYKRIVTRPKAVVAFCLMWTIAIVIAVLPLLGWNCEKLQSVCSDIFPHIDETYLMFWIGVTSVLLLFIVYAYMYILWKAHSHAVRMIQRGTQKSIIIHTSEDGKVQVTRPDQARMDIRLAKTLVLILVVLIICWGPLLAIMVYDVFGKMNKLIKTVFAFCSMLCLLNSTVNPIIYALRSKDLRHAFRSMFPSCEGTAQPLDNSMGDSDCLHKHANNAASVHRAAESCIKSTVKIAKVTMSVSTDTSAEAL

Cannabinoid receptor 1 [4] = target: T2, Cannabinoid receptor 1; assay: Agonist activity at human CB1 in CHO cells assessed as inhibition of cAMP production; format: functional, cell-based
Cannabinoid receptor 1 [5] = target: Cannabinoid receptor 1 (Mus musculus, UniProt P47746); assay: Displacement of [3H]CP-55940 from mouse CB1 receptor
Sequence of Cannabinoid receptor 1 (Mus musculus, UniProt P47746) (P47746 whole entry): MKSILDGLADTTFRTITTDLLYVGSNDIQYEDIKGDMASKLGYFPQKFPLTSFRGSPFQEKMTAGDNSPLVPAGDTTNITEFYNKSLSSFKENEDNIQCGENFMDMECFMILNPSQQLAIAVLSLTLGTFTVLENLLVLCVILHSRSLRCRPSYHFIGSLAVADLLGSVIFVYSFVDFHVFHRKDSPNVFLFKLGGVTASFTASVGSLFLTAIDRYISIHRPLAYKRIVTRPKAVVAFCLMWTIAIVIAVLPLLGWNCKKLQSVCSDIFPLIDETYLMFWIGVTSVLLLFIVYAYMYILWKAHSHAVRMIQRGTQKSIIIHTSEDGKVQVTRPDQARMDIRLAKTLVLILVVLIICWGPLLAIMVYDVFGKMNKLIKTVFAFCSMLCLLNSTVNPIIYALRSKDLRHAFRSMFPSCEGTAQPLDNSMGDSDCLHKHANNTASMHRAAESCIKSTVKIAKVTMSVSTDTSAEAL

Cannabinoid receptor 2 [6] = target: T1, Cannabinoid receptor 2; assay: Agonist activity at human CB2 in CHO cells assessed as inhibition of cAMP production; format: functional, cell-based
Mus musculus [7] = assay: Analgesic activity in sc dosed ICR mouse right hind paw in presence of SR-144528 assessed as inhibition of formalin induced licking; format: functional, organism-based
[8] = Bioavailability in rat at 30 mg/kg, po; format: ADME, organism-based; settings: in vivo
Mus musculus [9] = assay: Analgesic activity in sc dosed ICR mouse right hind paw of assessed as formalin induced licking; format: functional, organism-based
[10] = Half life in rat at 2 mg/kg, iv or 30 mg/kg, po; format: ADME, organism-based; settings: in vivo
[11] = Clearance in rat at 2 mg/kg, iv or 30 mg/kg, po; format: ADME, organism-based; settings: in vivo
[12] = AUC in rat at 30 mg/kg, po; format: ADME, organism-based; design: dose 30 mg/kg, route oral; settings: plasma

Work on `CSC(=S)N1CC(C)CS/C1=N\c1ccccc1C(C)C` (stereo unspecified) yielded a Ki (Cannabinoid receptor 2 [1]) of 98 nM.

Work on `CCOC(=O)N1CC(C)(C)CS/C1=N\c1ccccc1C(C)C` yielded a Ki (Cannabinoid receptor 2 [1]) of 428 nM, a Ki (Cannabinoid receptor 2 [2]) of 187 nM and a Ki (Cannabinoid receptor 1 [3]) of over 5000 nM. The IC50 (Cannabinoid receptor 1 [4]) was over 5000 nM, the Ki (Cannabinoid receptor 1 [5]) was over 5000 nM and the IC50 (Cannabinoid receptor 2 [6]) was 322 nM.

Compound `CCCc1ccccc1/N=C1\SCC(C)(C)CN1C(=S)SC` has a Ki (Cannabinoid receptor 2 [1]) of 57 nM.

With `CSC(=S)N1CC(C)(C)CS/C1=N\c1ccccc1-c1ccccc1` the Ki (Cannabinoid receptor 2 [1]) was 989 nM.

In the case of `CSC(=S)N1CCCS/C1=N\c1ccccc1C(C)C`, the Ki (Cannabinoid receptor 2 [1]) is reported as 1580 nM.

Work on `CCSC(=O)N1CC(C)(C)CS/C1=N\c1ccccc1C(C)C` yielded a Ki (Cannabinoid receptor 2 [1]) of 48 nM.

With `COc1ccccc1/N=C1\SCC(C)(C)CN1C(=S)SC` the Ki (Cannabinoid receptor 2 [1]) was 18 nM.

In the case of `CCNC(=S)N1CC(C)(C)CS/C1=N\c1ccccc1C(C)C`, the Ki (Cannabinoid receptor 2 [1]) is reported as over 5000 nM.

For `CCNC(=O)N1CC(C)(C)CS/C1=N\c1ccccc1C(C)C`, the Ki (Cannabinoid receptor 2 [1]) was over 5000 nM.

`CCN1CC(C)(C)CS/C1=N\c1ccccc1C(C)C` showed a Ki (Cannabinoid receptor 2 [1]) of 4880 nM.

`CC(C)SC(=S)N1CC(C)(C)CS/C1=N\c1ccccc1C(C)C` gave a Ki (Cannabinoid receptor 2 [1]) of 275 nM.

Work on `CSC(=S)N1CC(C)(C)CS/C1=N\c1ccccc1` yielded a Ki (Cannabinoid receptor 2 [1]) of 316 nM.

With `CCOC(=S)N1CC(C)(C)CS/C1=N\c1ccccc1C(C)C` the Ki (Cannabinoid receptor 2 [1]) was 230 nM.

In the case of `CCCN1CC(C)(C)CS/C1=N\c1ccccc1C(C)C`, the Ki (Cannabinoid receptor 2 [1]) is reported as 915 nM.

Compound `CSC(=S)N1CC(C)(C)CS/C1=N\c1ccc(C(C)C)cc1` has a Ki (Cannabinoid receptor 2 [1]) of 22 nM.

With `CSC(=S)N1CC(C)(C)CS/C1=N\c1c(C)cccc1C` the Ki (Cannabinoid receptor 2 [1]) was over 5000 nM.

With `CC(C)c1ccccc1/N=C1/NCC(C)(C)CS1` the Ki (Cannabinoid receptor 2 [1]) was over 5000 nM.

With `CSC(=S)N1CC(C)(C)CS/C1=N\c1ccccc1C` the Ki (Cannabinoid receptor 2 [1]) was 202 nM.

For `CSC(=S)N1CC(C)(C)CS/C1=N\c1ccccc1Oc1ccccc1`, the Ki (Cannabinoid receptor 2 [1]) was 2920 nM.

In the case of `CSC(=S)N1CC(C)(C)CS/C1=N\c1ccccc1C(F)(F)F`, the Ki (Cannabinoid receptor 2 [1]) is reported as 141 nM.

With `CCCSC(=S)N1CC(C)(C)CS/C1=N\c1ccccc1C(C)C` the Ki (Cannabinoid receptor 2 [1]) was 119 nM.

`CSC(=S)N1CC(C)(C)CS/C1=N\c1ccccc1F` gave a Ki (Cannabinoid receptor 2 [1]) of 252 nM.

Compound `CSC(=S)N1CCC(C)S/C1=N\c1ccccc1C(C)C` (stereo unspecified) has a Ki (Cannabinoid receptor 2 [1]) of over 5000 nM.

For `CC(C)c1ccccc1/N=C1\SCC(C)(C)CN1Cc1ccccc1`, the Ki (Cannabinoid receptor 2 [1]) was 1360 nM.

For `CSC(=S)N1/C(=N/c2ccccc2C(C)C)SCCC1C` (stereo unspecified), the Ki (Cannabinoid receptor 2 [1]) was over 5000 nM.

Compound `CSC(=S)N1CC(C)(C)CS/C1=N\c1ccccc1Br` has a Ki (Cannabinoid receptor 2 [1]) of 371 nM.

`CCSC(=S)N1CC(C)(C)CS/C1=N\c1ccccc1C(C)C` showed a Ki (Cannabinoid receptor 2 [1]) of 35 nM.

For `CSC(=S)N1CC(C)(C)CS/C1=N\c1ccccc1C(C)C`, the Activity (Mus musculus [7]) was “inactive”, the Ki (Cannabinoid receptor 2 [1]) was 9 nM and the Ki (Cannabinoid receptor 2 [2]) was 9 nM. The bioavailability [8] was 18%, the Activity (Mus musculus [9]) was “Active” and the half-life [10] was 36 min. It also gave a Ki (Cannabinoid receptor 1 [3]) of over 5000 nM, a clearance [11] of 83.3 mL/min/kg and an IC50 (Cannabinoid receptor 1 [4]) of over 5000 nM. It also gave an AUC [12] of 1100 ng·h/mL, a Ki (Cannabinoid receptor 1 [5]) of 2020 nM and an IC50 (Cannabinoid receptor 2 [6]) of 6.1 nM.

`CSC(=S)N1CC(C)(C)CS/C1=N\c1cccc(C(C)C)c1` gave a Ki (Cannabinoid receptor 2 [1]) of 33 nM.

In the case of `CSC(=S)N1CC(C)(C)CS/C1=N\c1ccccc1C(C)(C)C`, the Ki (Cannabinoid receptor 2 [1]) is reported as 313 nM.

With `CCc1ccccc1/N=C1\SCC(C)(C)CN1C(=S)SC` the Ki (Cannabinoid receptor 2 [1]) was 54 nM.

In the case of `CCOc1ccccc1/N=C1\SCC(C)(C)CN1C(=S)SC`, the Ki (Cannabinoid receptor 2 [1]) is reported as 84 nM.

`CSC(=S)N1CC(C)(C)CS/C1=N\c1ccccc1Cl` gave a Ki (Cannabinoid receptor 2 [1]) of 722 nM.

With `CCC(=O)N1CC(C)(C)CS/C1=N\c1ccccc1C(C)C` the Ki (Cannabinoid receptor 2 [1]) was 2090 nM.

Work on `Cc1c(C(=O)c2cccc3ccccc23)c2cccc3c2n1[C@H](CN1CCOCC1)CO3` [WIN-552122] yielded a Ki (Cannabinoid receptor 2 [2]) of 6 nM.
